# Patent publication US4976950A, “Bone marrow suppressing agents” (The Dow Chemical Company, priority 1989, dated 1990)
# “And” between values parts separate entries of the source, which are not always exact repeats. Equal entries are not always repeated.
# Key:
# [1] = tested on: white blood cell; assay: White blood cell count after injection of radionuclide complex (Unopette Test 5856); assay type: in vivo, Sprague Dawley rats
# Protocol: Six Sprague Dawley rats were allowed to acclimate for a period of 6 days then a sample of blood was taken daily from the tail vein and the white blood cell count determined by a standard manual method (Unopette Test 5856 from Becton-Dickinson and Company). On the fourth day, rats numbered 2, 4 and 6 were injected with 0.9 mCi (33.3 MBq) of the above complex. The rat weight at this time ranged from 160-180 g. On days 7, 8, and 9 the white blood cell count was again determined for each rat. Table VI gives the white blood cell count of the injected (2, 4 and 6) rats compared to the control rats (1, 3, and 5). […]
# [2] = Biodistribution: % of injected dose in tissue 2 hours after tail vein injection (NaI scintillation counting); assay type: in vivo, Sprague Dawley rats; conditions: rat i.v.
# Protocol: (§1) The rats weighed between 150 and 200 g at the time of injection. After 2 hours the rats were killed by cervical dislocation and dissected. The amount of radioactivity in each tissue was determined by counting in a NaI scintillation counter coupled to a multichannel analyzer. The counts were compared to the counts in 100 μL standards in order to determine the percentage of the dose in each tissue or organ.
# as §1, with “to determined” for “to determine”, “organ. The numbers represent the average of 5 rats per data point.” for “organ.”
# as §1, with “Sprague Dawley rats were allowed to acclimate for five days then injected with 100 μL of the Sm solution described above via a tail vein. The rats” for “The rats”, “or organ. The numbers represent the average of 3 rats per data point.” for “or organ.”
# as §1, with “Sprague Dawley rats were allowed to acclimate for five days then injected with 100 μL of the Ho solution described above via a tail vein. The rats” for “The rats”, “each tissue wa determined by” for “each tissue was determined by”, “or organ. The numbers represent the average of 3 rats per data point.” for “or organ.”
# Sprague Dawley rats were allowed to acclimate for five days then injected with 100 μL of the solutions described above via a tail vein. The rats weighed between 150 and 200 g at the time of injection. After 2 hours the rats were killed by cervical dislocation. Tissues were taken, weighed and the amount of radioactivity determined by counting in a NaI scintillation counter coupled to a multichannel analyzer. The counts in each tissue were compared to the counts in 100 μL standards in order to determine the percentage of the dose in each tissue or organ.
# A Sprague Dawley rat was allowed to acclimate for five days then injected with 175 μL of the solution described above via a tail vein. The rat weighed 155 g at the time of injection. After 2 hours the rat was killed by cervical dislocation and dissected. The amount of radioactivity in each tissue was determined by counting in a NaI scintillation counter coupled to a multichannel analyzer. The counts in each tissue were compared to the counts in […] standards in order to determine the percentage of the dose in each tissue or organ.
# [3] = 0.9 mCi (33.3 MBq) injected Day 4, individual rats 2, 4, 6 (Day 4 counts 28950, 21300, 17600)
compound,measurement,setting,value
O=P([O-])(O)CN1CCN(CP(=O)(O)O)CCN(CP(=O)([O-])O)CCN(CP(=O)(O)O)CC1.[166Ho] [Ho-DOTMP],Blood count of treated animals compared to untreated animals,"[1]; 0.9 mCi (33.3 MBq) i.v., rats, days 7, 8 and 9, injected on day 4",significant drop in the blood count
same,"White blood cell count, Day 7",[1]; [3],5850 and 7400 and 5400
same,"White blood cell count, Day 8",[1]; [3],7950 and 7500 and 4750
same,"White blood cell count, Day 9",[1]; [3],7900 and 7550 and 5350
same,% Injection dose in blood,"[2]; Table IV, Blood, 0.6 mM Ho, ligand to Ho ratio approximately 1.5, average of 3 rats",0.07%
same,% Injection dose in kidney,"[2]; Table IV, Kidney, 0.6 mM Ho, ligand to Ho ratio approximately 1.5, average of 3 rats",0.4%
same,% Injection dose in liver,"[2]; Table IV, Liver, 0.6 mM Ho, ligand to Ho ratio approximately 1.5, average of 3 rats",0.07%
same,% Injected dose in blood,"[2]; Table V, Blood, ligand of Example 2, cation exchange purified, average of 3 rats",0.17%
same,% Injected dose in bone,"[2]; Table V, Bone, ligand of Example 2, cation exchange purified, average of 3 rats",64%
same,% Injected dose in liver,"[2]; Table V, Liver, ligand of Example 2, cation exchange purified, average of 3 rats",0.19%
